Here are results for 15 molecules from ChEMBL document CHEMBL3585266, “New matrix metalloproteinase inhibitors based on γ-fluorinated α-aminocarboxylic and α-aminohydroxamic acids” (Bioorg Med Chem, 2015).

Assay [1] addresses Matrix metalloproteinase-9 (Homo sapiens, UniProt P14780). Nature of the assay: Inhibition of human active MMP9 using (7-methoxycoumarin-4-yl) acetyl pro-Leu-Gly-Leu-[3-(2,4-dinitrophenyl)-L-2,3-diamino-propionyl]-Ala-Arg-NH2 fluorogenic substrate assessed as fluorescent product release.
Assay [2] has as its target 72 kDa type IV collagenase (Homo sapiens, UniProt P08253).
Description: Inhibition of human active MMP2 using (7-methoxycoumarin-4-yl) acetyl pro-Leu-Gly-Leu-[3-(2,4-dinitrophenyl)-L-2,3-diamino-propionyl]-Ala-Arg-NH2 fluorogenic substrate assessed as fluorescent product release

Bounds are passed on as bounds.

Chain of 72 kDa type IV collagenase (P08253 whole entry): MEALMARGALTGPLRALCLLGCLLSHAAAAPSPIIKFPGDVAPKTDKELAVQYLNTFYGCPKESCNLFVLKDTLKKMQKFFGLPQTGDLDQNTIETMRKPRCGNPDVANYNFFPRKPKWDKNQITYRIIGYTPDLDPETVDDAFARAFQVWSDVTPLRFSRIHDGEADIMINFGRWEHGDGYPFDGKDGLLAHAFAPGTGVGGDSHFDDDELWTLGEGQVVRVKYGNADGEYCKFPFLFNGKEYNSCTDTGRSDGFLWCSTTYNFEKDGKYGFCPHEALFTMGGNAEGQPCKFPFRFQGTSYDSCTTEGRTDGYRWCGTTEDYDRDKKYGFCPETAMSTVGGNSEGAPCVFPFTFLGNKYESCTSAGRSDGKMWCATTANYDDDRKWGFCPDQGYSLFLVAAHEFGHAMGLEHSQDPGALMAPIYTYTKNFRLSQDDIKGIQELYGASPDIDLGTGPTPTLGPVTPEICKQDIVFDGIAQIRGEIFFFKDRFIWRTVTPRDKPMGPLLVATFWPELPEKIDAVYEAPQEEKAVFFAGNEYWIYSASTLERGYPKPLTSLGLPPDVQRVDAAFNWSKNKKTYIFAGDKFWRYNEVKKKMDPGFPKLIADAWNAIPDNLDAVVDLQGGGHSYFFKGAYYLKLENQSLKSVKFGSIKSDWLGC
Chain of Matrix metalloproteinase-9 (P14780 whole entry): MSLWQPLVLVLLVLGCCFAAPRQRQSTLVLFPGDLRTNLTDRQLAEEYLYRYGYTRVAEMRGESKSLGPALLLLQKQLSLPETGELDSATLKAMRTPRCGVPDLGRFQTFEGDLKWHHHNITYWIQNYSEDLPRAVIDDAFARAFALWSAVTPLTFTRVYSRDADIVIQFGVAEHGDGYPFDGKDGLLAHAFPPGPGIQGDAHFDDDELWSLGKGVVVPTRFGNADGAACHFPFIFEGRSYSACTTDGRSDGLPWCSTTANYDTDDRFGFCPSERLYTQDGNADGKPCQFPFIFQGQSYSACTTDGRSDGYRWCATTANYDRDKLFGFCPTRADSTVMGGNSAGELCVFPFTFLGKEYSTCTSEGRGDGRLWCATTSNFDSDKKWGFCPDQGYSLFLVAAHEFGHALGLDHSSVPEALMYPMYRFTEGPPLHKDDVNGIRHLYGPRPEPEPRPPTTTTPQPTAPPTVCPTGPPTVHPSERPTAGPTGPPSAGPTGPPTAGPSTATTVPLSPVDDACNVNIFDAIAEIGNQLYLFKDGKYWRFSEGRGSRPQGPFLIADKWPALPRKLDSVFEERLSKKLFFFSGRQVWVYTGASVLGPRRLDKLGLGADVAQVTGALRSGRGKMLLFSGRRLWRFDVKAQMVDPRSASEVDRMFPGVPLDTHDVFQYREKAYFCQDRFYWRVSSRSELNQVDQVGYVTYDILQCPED

For orientation: IC50 means the concentration that gives 50% inhibition. On to `CC[C@H](C(=O)O)N(Cc1cccnc1)S(=O)(=O)c1ccc(OC)cc1`, for which the IC50 in assay [1] is 8800 nM; in assay [2], 10300 nM.

For the molecule `CC[C@@H](C(=O)O)N(Cc1cccnc1)S(=O)(=O)c1ccc(OC)cc1`, the IC50 in assay [1] and in assay [2] was > 100000 nM each time.

Consider `CC[C@H](C(=O)NO)N(Cc1cccnc1)S(=O)(=O)c1ccc(OC)cc1`, for which the IC50 in assay [1] worked out at 4.6 nM; in assay [2] it was 2 nM.

For `CC[C@@H](C(=O)NO)N(Cc1cccnc1)S(=O)(=O)c1ccc(OC)cc1`, the IC50 was found to be 700 nM in assay [1] and 1400 nM in assay [2].

`COc1ccc(S(=O)(=O)N(Cc2cccnc2)[C@H](CCF)C(=O)O)cc1`: the IC50 in assay [1] and in assay [2] was > 100000 nM each time.

On to `COc1ccc(S(=O)(=O)N(Cc2cccnc2)[C@@H](CCF)C(=O)O)cc1`, for which the IC50 in assay [1] is > 100000 nM; in assay [2], 34700 nM.

On to `COc1ccc(S(=O)(=O)N(Cc2cccnc2)[C@H](CCF)C(=O)NO)cc1`, for which the IC50 came out at 12.3 nM in assay [1] and 6.4 nM in assay [2].

On to `C=CC[C@H](C(=O)O)N(Cc1cccnc1)S(=O)(=O)c1ccc(OC)cc1`, for which the values for the IC50 in assay [1] and in assay [2] were 1700 nM and 2100 nM, respectively.

Turning to `C=CC[C@@H](C(=O)O)N(Cc1cccnc1)S(=O)(=O)c1ccc(OC)cc1`, the IC50 in assay [1] and in assay [2] was > 100000 nM throughout.

`C=CC[C@H](C(=O)NO)N(Cc1cccnc1)S(=O)(=O)c1ccc(OC)cc1`: the IC50 in assay [1] is 0.54 nM; in assay [2], 3.9 nM.

Take `C=CC[C@@H](C(=O)NO)N(Cc1cccnc1)S(=O)(=O)c1ccc(OC)cc1`: the results for the IC50 in assay [1] and in assay [2] were 6.4 nM and 6.3 nM, respectively.

Turning to `C=C(F)C[C@H](C(=O)O)N(Cc1cccnc1)S(=O)(=O)c1ccc(OC)cc1`, the IC50 was > 100000 nM in assay [1] and 35700 nM in assay [2].

As to `C=C(F)C[C@@H](C(=O)O)N(Cc1cccnc1)S(=O)(=O)c1ccc(OC)cc1`, the IC50 in assay [1] and in assay [2] was > 100000 nM each time.

As to `C=C(F)C[C@H](C(=O)NO)N(Cc1cccnc1)S(=O)(=O)c1ccc(OC)cc1`, the figures for the IC50 in assay [1] and in assay [2] were 8.3 nM and 9.3 nM, respectively.

As to `C=C(F)C[C@@H](C(=O)NO)N(Cc1cccnc1)S(=O)(=O)c1ccc(OC)cc1`, the figures for the IC50 in assay [1] and in assay [2] were 4.9 nM and 7.2 nM, respectively.
